One series has as its system MDA-MB-231 cells. The series is described as follows: MDA-MB-231 tumors in nude mice. Type of series: in vivo. As to the method: FIG. 36 is a graph of tumor volume over weeks of tumors in mice. MDA-MB-231 cells were injected into both flanks of athymic nude mice. The mice were treated with daily I.P. injections of either a vehicle (n=5) or HNK (2 mg/d, n=5) for four weeks.
Animal studies: All animals were maintained and animal experiments were performed under NIH and institutional guidelines established for the Animal Core Facility at the Cedars-Sinai Medical Center. MDA-MB-231 cells were harvested, washed twice with sterile PBS, counted and re-suspended in Matrigel (BD Biosciences, San Jose, Calif.). Six-week-old female athymic nude mice were injected subcutaneously in both flanks with cells at a density of 1×10^6 viable cells/100 μl. […] Tumor size was measured with a linear caliper for up to 5 weeks, and the volume was estimated by using the equation V=(a×b2)×0.5236, where “a” is the larger dimension and “b” the perpendicular diameter.
In vivo activity of HNK against human breast cancer. MDA-MB-231 cells were injected on both flanks of nude mice (1×10^6 cells per injection, five mice per group, two tumors in each mouse), and tumor growth was monitored weekly. […] The mice were treated with daily injections of either 2 mg HNK (100 mg/kg) or a control vehicle for four weeks; and the tumors were measured weekly.

Series [1] deals with MCF-7 and MDA-MB-231 breast cancer cell lines. The series is described as follows: MTT assay of drug combinations (additive model). Type of series: cell-based. How it is done:
3-(4,5-dimethylthiazol-2-yl)-2,5-diphenyltetrazolium bromide (MTT) proliferation assays: 3×10^3 cells/well were plated in 96-well plates, cultured in the appropriate culture media containing 10% FCS, and treated with either control vehicle or various concentrations of HNK, alone or with a secondary drug, as indicated. All secondary drugs were freshly diluted in growth media and immediately added to cells along with the HNK. After 24 hours of incubation at 37° C., 5% CO2, the cells were cultured for four hours with 10% MTT reagent (5 mg/ml; Sigma-Aldrich, St. Louis, Mo.). The medium was aspirated, and the cells were dissolved by dimethyl sulfoxide (DMSO). Absorbance of the formazan product was measured by an enzyme-linked immunosorbent assay reader (Macintosh).
Model for drug interactions in vitro: The analysis of interaction between two drugs was conducted using the additive model (Xu D., et al. Cancer Lett. 2006 Jan. 7; [Electronic publication; ahead of print]; Sutherland, R. L., et al. Cancer Res. 1983 September; 43(9):3998-4006). The model predicts the effect of a combination to be equal to the product of the effect of its constituents. […] A ratio between the observed and the predicted viability by the additive model was calculated for all combinations. […]

The structures appear in SMILES notation.

Turning to `C=CCc1ccc(O)c(-c2ccc(O)c(CC=C)c2)c1` [HNK, Honokiol], the tumor growth entry in the series on MDA-MB-231 cells (2 mg HNK (100 mg/kg) daily i.p., four weeks, p<0.02 from week 2) was “complete arrest of tumor growth”. Besides, the “tolerability in the animals” value in the series on MDA-MB-231 cells (therapeutically beneficial doses) is listed as “well tolerated by the animals”. Besides, the “interaction of HNK and SAHA (additive model)” value in series [1] (HNK 10-50 μM with SAHA 2 μM, 24 hours) is “synergistic effect”. Further, the “interaction of HNK and the other drugs tested (additive model)” value in series [1] (with paclitaxel 250 nM, doxorubicin 300 nM, 4-HT 100 nM) is recorded as “Additive effect”.

The record behind these values is patent US20080300298A1, “Honokiol Derivates For the Treatment of Proliferative Disorders” (priority 2005, published 2008).
